Measurements as given in patent publication US20260265233A1, “BENZOTHIOPHENE DERIVATIVES AS RXFP1 AGONISTS” (BRISTOL-MYERS SQUIBB COMPANY, priority 2021, published 2026).

Target: T1, human RXFP1 (Homo sapiens, UniProt Q9HBX9)
T1 construct: expressed in transfected cells
T1 sequence (Q9HBX9 1-757): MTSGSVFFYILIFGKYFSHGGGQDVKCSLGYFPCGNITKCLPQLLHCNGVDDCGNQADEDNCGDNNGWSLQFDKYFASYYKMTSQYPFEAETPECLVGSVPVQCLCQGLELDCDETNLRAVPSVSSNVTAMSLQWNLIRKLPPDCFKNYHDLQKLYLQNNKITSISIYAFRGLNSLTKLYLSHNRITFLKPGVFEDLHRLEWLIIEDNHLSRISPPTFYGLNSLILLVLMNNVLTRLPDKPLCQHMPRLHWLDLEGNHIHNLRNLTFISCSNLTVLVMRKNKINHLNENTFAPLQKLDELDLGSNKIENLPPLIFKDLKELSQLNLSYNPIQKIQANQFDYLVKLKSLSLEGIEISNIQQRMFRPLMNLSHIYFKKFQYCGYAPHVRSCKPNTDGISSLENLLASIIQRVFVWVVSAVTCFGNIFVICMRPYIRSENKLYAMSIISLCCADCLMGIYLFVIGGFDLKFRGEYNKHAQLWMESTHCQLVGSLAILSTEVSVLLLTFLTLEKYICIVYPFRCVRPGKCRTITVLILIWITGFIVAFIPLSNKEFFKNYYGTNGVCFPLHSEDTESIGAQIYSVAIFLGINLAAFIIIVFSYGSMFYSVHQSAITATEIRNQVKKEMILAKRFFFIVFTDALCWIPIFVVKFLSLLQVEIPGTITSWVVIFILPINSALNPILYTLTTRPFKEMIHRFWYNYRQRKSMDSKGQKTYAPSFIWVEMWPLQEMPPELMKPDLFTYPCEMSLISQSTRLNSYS
Experiment: hRXFP1 HEK293 cAMP assay (HTRF)
Format: cell-based
Settings: HEK293 cells stably expressing human RXFP1; 30 min at rt; intracellular cAMP by HTRF
Procedure, shortened: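 Agonism is measured as cAMP by HTRF, quantified from a standard curve via the 665/590 nm ratio and fitted with a four-parameter logistic equation. Compounds (0.010 nM to 50 μM final, 2% DMSO) were applied for 30 min at rt to human RXFP1-expressing HEK293 cells in assay buffer containing 0.5 mM IBMX.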

Compound | EC50
COc1ccc(N2CCCC(C(=O)NCCO)C2)cc1C(=O)Nc1c(C(=O)Nc2ccc(F)c(C(F)(F)F)c2)sc2cc(C(F)(F)F)ccc12 (single isomer, unassigned) [Example 230, 1-(3-((2-((4-fluoro-3-(trifluoromethyl)phenyl)carbamoyl)-6-(trifluoromethyl)benzo[b]thiophen-3-yl)carbamoyl)-4-methoxyphenyl)-N-(2-hydroxyethyl) piperidine-3-carboxamide] | 1400 nM
COc1ccc(N2CCCC(C(=O)NCCO)C2)cc1C(=O)Nc1c(C(=O)Nc2ccc(F)c(C(F)(F)F)c2)sc2cc(C(F)(F)F)ccc12 (single isomer, unassigned) [Example 231, 1-(3-((2-((4-fluoro-3-(trifluoromethyl)phenyl)carbamoyl)-6-(trifluoromethyl)benzo[b]thiophen-3-yl)carbamoyl)-4-methoxyphenyl)-N-(2-hydroxyethyl) piperidine-3-carboxamide] | 1680 nM
COc1ccc(C2=NOC3CN(C(=O)CO)CC23)cc1C(=O)Nc1c(C(=O)Nc2ccc(F)c(C(F)(F)F)c2)sc2cc(C(F)(F)F)ccc12 (single isomer, unassigned) [Example 242, N-(4-fluoro-3-(trifluoromethyl)phenyl)-3-(5-(5-(2-hydroxyacetyl)-3a,5,6,6a-tetrahydro-4H-pyrrolo[3,4-d]isoxazol-3-yl)-2-methoxy-benzamido)-6-(trifluoromethyl) benzo[b] thiophene-2-carboxamide] | 9.8 nM
COc1ccc(C2=NOC3CN(C(=O)CO)CC23)cc1C(=O)Nc1c(C(=O)Nc2ccc(F)c(C(F)(F)F)c2)sc2cc(C(F)(F)F)ccc12 (single isomer, unassigned) [Example 243, N-(4-fluoro-3-(trifluoromethyl)phenyl)-3-(5-(5-(2-hydroxyacetyl)-3a,5,6,6a-tetrahydro-4H-pyrrolo[3,4-d]isoxazol-3-yl)-2-methoxy-benzamido)-6-(trifluoromethyl) benzo[b] thiophene-2-carboxamide] | 1050 nM
COc1ccc(C2=NOC3CN(C(=O)OC(C)(C)C)CC23)cc1C(=O)Nc1c(C(=O)Nc2ccc(F)c(C(F)(F)F)c2)sc2cc(C(F)(F)F)ccc12 (single isomer, unassigned) [Example 244, tert-butyl 3-(3-((2-((4-fluoro-3-(trifluoromethyl)phenyl)carbamoyl)-6-(trifluoromethyl)benzo[b]thiophen-3-yl)carbamoyl)-4-methoxyphenyl)-3a,4,6,6a-tetrahydro-5H-pyrrolo[3,4-d]isoxazole-5-carboxylate] | 360 nM
COc1ccc(C2=NOC3CN(C(=O)OC(C)(C)C)CC23)cc1C(=O)Nc1c(C(=O)Nc2ccc(F)c(C(F)(F)F)c2)sc2cc(C(F)(F)F)ccc12 (single isomer, unassigned) [Example 245, tert-butyl 3-(3-((2-((4-fluoro-3-(trifluoromethyl)phenyl)carbamoyl)-6-(trifluoromethyl)benzo[b]thiophen-3-yl)carbamoyl)-4-methoxyphenyl)-3a,4,6,6a-tetrahydro-5H-pyrrolo[3,4-d]isoxazole-5-carboxylate] | 463 nM
COc1ccc(C2=NOC3CN(C(=O)CO)CC23)cc1C(=O)Nc1c(C(=O)Nc2ccc(F)c(C(F)(F)F)c2)sc2ccccc12 (single isomer, unassigned) [Example 248, N-[4-fluoro-3-(trifluoromethyl)phenyl]-3-{5-[5-(2-hydroxyacetyl) 3aH,4H,5H,6H, 6aH-pyrrolo[3,4-d][1,2]oxazol-3-yl]-2-methoxy-benzamido}-1-benzothiophene-2-carboxamide] | 545 nM
COc1ccc(C2=NOC(CO)C2)cc1C(=O)Nc1c(C(=O)Nc2ccc(F)c(C(F)(F)F)c2)sc2cc(C(F)(F)F)ccc12 (single isomer, unassigned) [Example 249, N-(4-fluoro-3-(trifluoromethyl)phenyl)-3-(5-(5-(hydroxymethyl)-4,5-dihydroisoxazol-3-yl)-2-methoxy-benzamido)-6-(trifluoromethyl) benzo[b] thiophene-2-carboxamide] | 3700 nM
COc1ccc(C2=NOC(CO)C2)cc1C(=O)Nc1c(C(=O)Nc2ccc(F)c(C(F)(F)F)c2)sc2cc(C(F)(F)F)ccc12 (single isomer, unassigned) [Example 250, N-(4-fluoro-3-(trifluoromethyl)phenyl)-3-(5-(5-(hydroxymethyl)-4,5-dihydroisoxazol-3-yl)-2-methoxy-benzamido)-6-(trifluoromethyl) benzo[b] thiophene-2-carboxamide] | 280 nM
COc1ccc(C2=NOC(C)(CO)C2)cc1C(=O)Nc1c(C(=O)Nc2ccc(F)c(C(F)(F)F)c2)sc2cc(C(F)(F)F)ccc12 (single isomer, unassigned) [Example 253, N-(4-fluoro-3-(trifluoromethyl)phenyl)-3-(5-(5-(hydroxymethyl)-5-methyl-4,5-dihydroisoxazol-3-yl)-2-methoxy-benzamido)-6-(trifluoromethyl) benzo[b] thiophene-2-carboxamide] | 192 nM
COc1ccc(C2=NOC(C)(CO)C2)cc1C(=O)Nc1c(C(=O)Nc2ccc(F)c(C(F)(F)F)c2)sc2cc(C(F)(F)F)ccc12 (single isomer, unassigned) [Example 254, N-(4-fluoro-3-(trifluoromethyl)phenyl)-3-(5-(5-(hydroxymethyl)-5-methyl-4,5-dihydroisoxazol-3-yl)-2-methoxy-benzamido)-6-(trifluoromethyl) benzo[b] thiophene-2-carboxamide] | 1020 nM
COc1ccc(C2=NOC3COCC23)cc1C(=O)Nc1c(C(=O)Nc2ccc(F)c(C(F)(F)F)c2)sc2cc(C(F)(F)F)ccc12 (single isomer, unassigned) [Example 255, 3-(5-{3aH,4H,6H,6aH-furo[3,4-d][1,2]oxazol-3-yl}-2-methoxy-benzamido)-N-[4-fluoro-3-(trifluoromethyl)phenyl]-6-(trifluoromethyl)-1-benzothiophene-2-carboxamide] | 498 nM
COc1ccc(C2=NOC(C(C)(C)O)C2)cc1C(=O)Nc1c(C(=O)Nc2ccc(F)c(C(F)(F)F)c2)sc2cc(C(F)(F)F)ccc12 (single isomer, unassigned) [Example 257, N-[4-fluoro-3-(trifluoromethyl)phenyl]-3-{5-[5-(2-hydroxypropan-2-yl)-4,5-dihydro-1,2-oxazol-3-yl]-2-methoxy-benzamido}-6-(trifluoromethyl)-1-benzothiophene-2-carboxamide] | 166 nM
COc1ccc(C2=NOC(C(C)(C)O)C2)cc1C(=O)Nc1c(C(=O)Nc2ccc(F)c(C(F)(F)F)c2)sc2cc(C(F)(F)F)ccc12 (single isomer, unassigned) [Example 258, N-[4-fluoro-3-(trifluoromethyl)phenyl]-3-{5-[5-(2-hydroxypropan-2-yl)-4,5-dihydro-1,2-oxazol-3-yl]-2-methoxy-benzamido}-6-(trifluoromethyl)-1-benzothiophene-2-carboxamide] | 673 nM
COc1ccc(C2=NOC3CC(N)CC23)cc1C(=O)Nc1c(C(=O)Nc2ccc(F)c(C(F)(F)F)c2)sc2cc(C(F)(F)F)ccc12 (single isomer, unassigned) [Example 259, 3-(5-{5-amino-3aH,4H,5H,6H, 6aH-cyclopenta[d] [1,2]oxazol-3-yl}-2-methoxy-benzamido)-N-[4-fluoro-3-(trifluoromethyl)phenyl]-6-(trifluoromethyl)-1-benzothiophene-2-carboxamide] | 364 nM
COc1ccc(C2=NOC3CC(NC(=O)C(C)(C)O)CC23)cc1C(=O)Nc1c(C(=O)Nc2ccc(F)c(C(F)(F)F)c2)sc2cc(C(F)(F)F)ccc12 (single isomer, unassigned) [Example 262, N-[4-fluoro-3-(trifluoromethyl)phenyl]-3-{5-[5-(2-hydroxy-2-methyl-propanamido)-3aH,4H,5H,6H, 6aH-cyclopenta[d] [1,2]oxazol-3-yl]-2-methoxy-benzamido}-6-(trifluoromethyl)-1-benzothiophene-2-carboxamide] | 723 nM
COc1ccc(C2=NOC3CC(NC(=O)CO)CC23)cc1C(=O)Nc1c(C(=O)Nc2ccc(F)c(C(F)(F)F)c2)sc2cc(C(F)(F)F)ccc12 (single isomer, unassigned) [Example 263, N-[4-fluoro-3-(trifluoromethyl)phenyl]-3-{5-[5-(2-hydroxyacetamido)-3aH,4H,5H,6H, 6aH-cyclopenta[d] [1,2]oxazol-3-yl]-2-methoxy-benzamido}-6-(trifluoromethyl)-1-benzothiophene-2-carboxamide] | 122 nM
COc1ccc(C2=NOC3CC(NC(=O)CO)CC23)cc1C(=O)Nc1c(C(=O)Nc2ccc(F)c(C(F)(F)F)c2)sc2cc(C(F)(F)F)ccc12 (single isomer, unassigned) [Example 264, N-[4-fluoro-3-(trifluoromethyl)phenyl]-3-{5-[5-(2-hydroxyacetamido)-3aH,4H,5H,6H, 6aH-cyclopenta[d] [1,2]oxazol-3-yl]-2-methoxy-benzamido}-6-(trifluoromethyl)-1-benzothiophene-2-carboxamide] | 3140 nM
